According to the supplement of paper PMC12592484:

How the values were obtained:
Experiment in all cases: drug sensitivity score (DSS2, normalised partial AUC of dose-response, 72 h CellTiter-Glo viability) (DSS (dimensionless)); higher = more sensitive (stronger growth inhibition / cytotoxicity); extreme values may be limits of the assay
[1] = system: 22Rv1
How it was run: (§1)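 Viability of low-passage primary prostate cancer-associated fibroblasts, PF179T, WPMY-1, LNCaP and 22Rv1 cells was read by CellTiter-Glo 2.0 luminescence 72 h after seeding onto compounds pre-dispensed in 384-well plates at five doses over a 10,000-fold range. Readings were scaled between vehicle and positive-control wells. Sensitivity is reported as a drug sensitivity score from BREEZE, namely a partial area under the fitted logistic curve divided by the log of its upper asymptote, where higher means more sensitive.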

[2] = system: CAF#1 (primary prostate cancer-associated fibroblasts of myCAF-like type)
How it was run: as §1

[3] = system: CAF#2 (primary prostate cancer-associated fibroblasts of iCAF-like type)
How it was run: as §1

[4] = system: CAF#3 (primary prostate cancer-associated fibroblasts of myCAF-like type)
How it was run: as §1

[5] = system: CAF#4 (primary prostate cancer-associated fibroblasts of iCAF-like type)
How it was run: as §1

[6] = system: CAF#5 (primary prostate cancer-associated fibroblasts of myCAF-like type)
How it was run: as §1

[7] = system: CAF#6 (primary prostate cancer-associated fibroblasts of iCAF-like type)
How it was run: as §1

[8] = system: CAF#7 (primary prostate cancer-associated fibroblasts of myCAF-like type)
How it was run: as §1

[9] = system: LNCAP
How it was run: as §1

[10] = system: PF179T
How it was run: as §1

[11] = system: WPMY-1
How it was run: as §1

Structure (SMILES) | drug sensitivity score [1] | drug sensitivity score [2] | drug sensitivity score [3] | drug sensitivity score [4] | drug sensitivity score [5] | drug sensitivity score [6] | drug sensitivity score [7] | drug sensitivity score [8] | drug sensitivity score [9] | drug sensitivity score [10] | drug sensitivity score [11]
C=C1C[C@@H]2CC[C@@]34C[C@H]5O[C@H]6[C@@H](O3)[C@H]3O[C@H](CC[C@@H]3O[C@H]6[C@H]5O4)CC(=O)C[C@@H]3[C@@H](OC)[C@@H](C[C@H](O)CN)O[C@H]3C[C@H]3O[C@@H](CC[C@@H]1O2)C[C@@H](C)C3=C [Eribulin] (tested concentration range 0.1-1000 nM) | 24 | 12.3 | 18.3 | 11.8 | 9.6 | 13.7 | 15.3 | 22.1 | 36.5 | 19.4 | 28.9
C#Cc1cccc(Nc2ncnc3cc(OCCOC)c(OCCOC)cc23)c1 [Erlotinib] (tested concentration range 1-10000 nM) | 1.4 | 3.7 | 3.7 | 1.2 | 4.8 | 4.8 | 0.2 | 1.1 | 4 | 1.4 | 0.5
COc1cc([C@@H]2c3cc4c(cc3[C@@H](O[C@@H]3O[C@@H]5CO[C@@H](C)O[C@H]5[C@H](O)[C@H]3O)[C@H]3COC(=O)[C@H]23)OCO4)cc(OC)c1O [Etoposide] (tested concentration range 1-10000 nM) | 10.1 | 2.3 | 5.9 | 2.6 | 0.9 | 3 | 2.8 | 5.1 | 9.9 | 5.8 | 9
CO[C@H]1C[C@@H]2CC[C@@H](C)[C@@](O)(O2)C(=O)C(=O)N2CCCC[C@H]2C(=O)O[C@H]([C@H](C)C[C@@H]2CC[C@@H](OCCO)[C@H](OC)C2)CC(=O)[C@H](C)/C=C(\C)[C@@H](O)[C@@H](OC)C(=O)[C@H](C)C[C@H](C)/C=C/C=C/C=C/1C [Everolimus] (tested concentration range 0-100 nM) | 11.6 | 11.5 | 8.2 | 7.2 | 6.1 | 9.7 | 8.2 | 10.8 | 14.1 | 6.3 | 5.4
C=C1C[C@@H]2[C@H](CC[C@]3(C)C(=O)CC[C@@H]23)[C@@]2(C)C=CC(=O)C=C12 [Exemestane] (tested concentration range 1-10000 nM) | 0 | 0 | 0 | 0.7 | 0 | 0 | 0 | 0 | 2.5 | 0 | 0
CCn1c(=O)c(-c2ccc(Cl)cc2Cl)cc2cnc(Nc3ccc(N4CCNCC4)c(F)c3)nc21 [FRAX486] (tested concentration range 0.5-5000 nM) | 1.1 | 12.2 | 14.7 | 9.1 | 9.7 | 11.4 | 9 | 8.9 | 6.3 | 12.4 | 8.6
Cc1cnc(Nc2ccc(OCCN3CCCC3)cc2)nc1Nc1cccc(S(=O)(=O)NC(C)(C)C)c1 [Fedratinib] (tested concentration range 1-10000 nM) | 9.5 | 3.9 | 5 | 9.7 | 4.6 | 5.2 | 8 | 9.6 | 8 | 7.7 | 7.2
CON(C)C(=O)N1N=C(c2cc(F)ccc2F)S[C@@]1(CCCN)c1ccccc1 [Filanesib] (tested concentration range 0.1-1000 nM) | 21.3 | 0.2 | 17.7 | 3.2 | 6 | 3.9 | 2.6 | 2.6 | 29.5 | 13 | 22
O=C(Nc1nc2cccc(-c3ccc(CN4CCS(=O)(=O)CC4)cc3)n2n1)C1CC1 [Filgotinib] (tested concentration range 1-10000 nM) | 2.5 | 2.1 | 2.3 | 1.7 | 0 | 1.9 | 0.1 | 0.6 | 3.8 | 0.9 | 2.1
CC(C)(C)NC(=O)[C@H]1CC[C@H]2[C@@H]3CC[C@H]4NC(=O)C=C[C@]4(C)[C@H]3CC[C@]12C [Finasteride] (tested concentration range 1-10000 nM) | 0 | 0 | 0 | 0.5 | 0 | 0 | 0 | 0 | 2.8 | 0 | 0
CCCCCCCCc1ccc(CCC(N)(CO)CO)cc1 [Fingolimod] (tested concentration range 1-10000 nM) | 7 | 5.4 | 5.3 | 5.2 | 6 | 6.8 | 5.9 | 6.3 | 7.9 | 5.1 | 6.7
O=c1[nH]c(=O)n([C@H]2C[C@H](O)[C@@H](CO)O2)cc1F [Floxuridine] (tested concentration range 1-10000 nM) | 6 | 1.8 | 4.3 | 1.1 | 2 | 1.4 | 2.3 | 3 | 15.2 | 5.1 | 24
Nc1nc(F)nc2c1ncn2[C@@H]1O[C@H](CO)[C@@H](O)[C@@H]1O [Fludarabine] (tested concentration range 1-10000 nM) | 0 | 1.5 | 0.7 | 0 | 0.3 | 2.2 | 0.1 | 2.1 | 5.5 | 4.3 | 0.7
O=c1[nH]cc(F)c(=O)[nH]1 [Fluorouracil] (tested concentration range 1-10000 nM) | 2.4 | 2.6 | 3.6 | 0.5 | 2 | 2.9 | 1.6 | 2.1 | 4.6 | 3.4 | 0.2
CC(C)C(=O)Nc1ccc([N+](=O)[O-])c(C(F)(F)F)c1 [Flutamide] (tested concentration range 1-10000 nM) | 0.6 | 0 | 2.8 | 0 | 4.8 | 0.5 | 0 | 0 | 1.1 | 0 | 0
COc1cc2c(Oc3ccc(NC(=O)C4(C(=O)Nc5ccc(F)cc5)CC4)cc3F)ccnc2cc1OCCCN1CCOCC1 [Foretinib] (tested concentration range 0.1-1000 nM) | 3.4 | 6.8 | 10.3 | 7.9 | 6.9 | 6.7 | 5.2 | 7 | 5.6 | 6.8 | 7.9
COc1cc(Nc2ncc(F)c(Nc3ccc4c(n3)N(COP(=O)(O)O)C(=O)C(C)(C)O4)n2)cc(OC)c1OC [Fostamatinib] (tested concentration range 0.2-2500 nM) | 0 | 7.7 | 8.4 | 6.6 | 5.3 | 7.2 | 5.6 | 7 | 4.4 | 7.3 | 4.4
C[C@]12CC[C@@H]3c4ccc(O)cc4C[C@@H](CCCCCCCCC[S+]([O-])CCCC(F)(F)C(F)(F)F)[C@H]3[C@@H]1CC[C@@H]2O (some centres undefined) [Fulvestrant] (tested concentration range 0.1-1000 nM) | 0 | 0 | 0 | 0.2 | 0 | 0 | 0.1 | 0 | 0.3 | 0 | 0
CNc1nc(Nc2cn(C(C)(C)C#N)nc2C)ncc1C(F)(F)F [GNE-0877] (tested concentration range 0.1-1000 nM) | 0 | 0 | 0 | 0 | 0 | 0 | 0 | 0 | 0 | 0 | 0
CCCOc1ccn2c(C(C)=O)cc(-c3ccccc3S(C)(=O)=O)c2c1 [GSK2801] (tested concentration range 1-10000 nM) | 0 | 0 | 0 | 0 | 0 | 0.4 | 0 | 0 | 1.2 | 0 | 0
CCOC(=O)CCNc1cc(N2CCc3ccccc3CC2)nc(-c2ccccn2)n1 [GSK-J4] (tested concentration range 10-100000 nM) | 2.1 | 2.1 | 4.3 | 0.6 | 3.7 | 0.3 | 0 | 0 | 3.5 | 0.3 | 0.5
Cc1cccc(-c2nn3c(c2-c2ccnc4ccc(C(N)=O)cc24)CCC3)n1 [Galunisertib] (tested concentration range 0.1-1000 nM) | 0 | 0 | 0 | 0.1 | 0 | 0 | 0 | 0 | 0 | 0 | 0
CC(C)c1cc(-c2n[nH]c(=O)n2-c2ccc3c(ccn3C)c2)c(O)cc1O [Ganetespib] (tested concentration range 0.1-1000 nM) | 23.9 | 24.1 | 20.3 | 16.9 | 18.3 | 22.3 | 14.3 | 15.9 | 21.9 | 20.9 | 24.3
CN(C)C1CCN(C(=O)c2ccc(NC(=O)Nc3ccc(-c4nc(N5CCOCC5)nc(N5CCOCC5)n4)cc3)cc2)CC1 [Gedatolisib] (tested concentration range 0.1-1000 nM) | 22.5 | 5.9 | 5.1 | 8.9 | 5.6 | 9.8 | 10.9 | 13.1 | 19.8 | 8.1 | 14.8
